# Tests used:
# [1] = tested on: STAT3 activation in multiple cancer cell lines; parameters: method as in PMID 21490133; conditions: cited from earlier work
# NCI-H1650 = experiment: Cell proliferation assay (CellTiter-Glo); assay type: cell-based, human; conditions: Homo sapiens, NCI-H1650, 72 h, NCI-H1650 cells, 20 μM to 0.009 μM in serial 3-fold dilutions
# Description: (§1) All cells were obtained from the cell bank of the American Type Culture Collection (ATCC) and cultured in the supplier's recommended media supplemented with 10% FBS. The cell panel screen was measured using the CellTiter-Glo assay (Promega, Madison, WI) following a standard protocol. Briefly, cancer cells were seeded in 96-well plates and cultured overnight at 37°C with or without 5% CO2 in an incubator. Each compound was dissolved with limited DMSO and diluted to a certain concentration with culture medium and then added to the corresponding well of the cell plate. The final concentration of compound was 20 μM. The control cells (without treatment) received the same amount of DMSO and were incubated under the same conditions. After 72 h cultivation, 100 μL of the CellTiter-Glo reagent was added directly to each well for 10-minute incubation. The plate was then read on a FlexStation 3 microplate luminometer (Molecular Devices, USA) to monitor the luminescence signal generated by the luciferase-catalyzed reaction of luciferin and ATP. The percent of growth inhibition was calculated using the following formula: (untreated cells − treated cells)/(untreated cells − background without cells) ∗ 100.
# (§2) For proliferation assays, the CellTiter-Glo assay (Promega, Madison, WI) was used to evaluate the proliferation of cancer cells treated with test compounds as described above. Each compound was dissolved in limited DMSO and diluted to various concentrations with culture medium and then added to the corresponding wells. A dose-response curve was plotted, and the IC50 was calculated using XLfit software.
# A549 = experiment: Cell proliferation assay (CellTiter-Glo); assay type: cell-based; conditions: Homo sapiens, A549 cells, 72 h
# Description: as §1, §2
# CHP212 = experiment: Cell proliferation assay (CellTiter-Glo); assay type: cell-based; conditions: Homo sapiens, CHP-212, CHP212 cells, 72 h
# Description: as §1, §2
# NCI-H1993 = experiment: Cell proliferation assay (CellTiter-Glo); assay type: cell-based; conditions: Homo sapiens, NCI-H1993 cells, 72 h
# Description: as §1, §2
# NCI-H838 = experiment: Cell proliferation assay (CellTiter-Glo); assay type: cell-based; conditions: Homo sapiens, NCI-H838 cells, 72 h
# Description: as §1, §2
# SW1353 = experiment: Cell proliferation assay (CellTiter-Glo); assay type: cell-based; conditions: Homo sapiens, SW1353 cells, 72 h
# Description: as §1, §2
# SW954 = experiment: Cell proliferation assay (CellTiter-Glo); assay type: cell-based; conditions: Homo sapiens, SW 954, SW954 cells, 72 h
# Description: as §1, §2
# HuVec = experiment: Cell proliferation assay (CellTiter-Glo), control cell line; assay type: cell-based; conditions: Homo sapiens, 72 h
# Description: as §1, §2
# A498 = experiment: Cell panel screen (CellTiter-Glo); assay type: cell-based, human; conditions: A498 (listed under Lung), 20 micromolar, 72 hrs
# Procedure, shortened: (§3)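 Values are % growth inhibition: the signal of treated wells was set against untreated (DMSO) wells, with cell-free wells as background. Treatment lasted 72 h at 20 μM final compound, and ATP content was read by luminescence.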
# A704 = experiment: Cell panel screen (CellTiter-Glo); assay type: cell-based, human; conditions: A704 (Kidney), 20 micromolar, 72 hrs
# Procedure, shortened: as §3
# BT-474 = experiment: Cell panel screen (CellTiter-Glo); assay type: cell-based, human; conditions: BT-474 (Breast), 20 micromolar, 72 hrs
# Procedure, shortened: as §3
# BT-549 = experiment: Cell panel screen (CellTiter-Glo); assay type: cell-based, human; conditions: BT-549 (Breast), 20 micromolar, 72 hrs
# Procedure, shortened: as §3
# Bel-7402 = experiment: Cell panel screen (CellTiter-Glo); assay type: cell-based, human; conditions: Bel-7402 (Liver), 20 micromolar, 72 hrs
# Procedure, shortened: as §3
# C3A = experiment: Cell panel screen (CellTiter-Glo); assay type: cell-based, human; conditions: C3A (Liver), 20 micromolar, 72 hrs
# Procedure, shortened: as §3
# C8166 = experiment: Cell panel screen (CellTiter-Glo); assay type: cell-based, human; conditions: C8166 (Leukemia), 20 micromolar, 72 hrs
# Procedure, shortened: as §3
# CCF-STTG1 = experiment: Cell panel screen (CellTiter-Glo); assay type: cell-based, human; conditions: CCF-STTG1 (Brain), 20 micromolar, 72 hrs
# Procedure, shortened: as §3
# CW-2 = experiment: Cell panel screen (CellTiter-Glo); assay type: cell-based, human; conditions: CW-2 (Colon), 20 micromolar, 72 hrs
# Procedure, shortened: as §3
# ChaGo-K-1 = experiment: Cell panel screen (CellTiter-Glo); assay type: cell-based, human; conditions: ChaGo-K-1 (Lung), 20 micromolar, 72 hrs
# Procedure, shortened: as §3
# Colo 205 = experiment: Cell panel screen (CellTiter-Glo); assay type: cell-based, human; conditions: Colo 205, 20 micromolar, 72 hrs
# Procedure, shortened: as §3
# HCC1395 = experiment: Cell panel screen (CellTiter-Glo); assay type: cell-based, human; conditions: HCC1395 (Breast), 20 micromolar, 72 hrs
# Procedure, shortened: as §3
# HCC1569 = experiment: Cell panel screen (CellTiter-Glo); assay type: cell-based, human; conditions: HCC1569 (Breast), 20 micromolar, 72 hrs
# Procedure, shortened: as §3
# HCC1599 = experiment: Cell panel screen (CellTiter-Glo); assay type: cell-based, human; conditions: HCC1599 (Breast), 20 micromolar, 72 hrs
# Procedure, shortened: as §3
# HCC1937 = experiment: Cell panel screen (CellTiter-Glo); assay type: cell-based, human; conditions: HCC1937 (Breast), 20 micromolar, 72 hrs
# Procedure, shortened: as §3
# HEC-1-A = experiment: Cell panel screen (CellTiter-Glo); assay type: cell-based, human; conditions: HEC-1-A (Uterus), 20 micromolar, 72 hrs
# Procedure, shortened: as §3
# HGC-27 = experiment: Cell panel screen (CellTiter-Glo); assay type: cell-based, human; conditions: HGC-27 (Stomach), 20 micromolar, 72 hrs
# Procedure, shortened: as §3
# HPAF-II = experiment: Cell panel screen (CellTiter-Glo); assay type: cell-based, human; conditions: HPAF-II (Pancreas), 20 micromolar, 72 hrs
# Procedure, shortened: as §3
# HT-1197 = experiment: Cell panel screen (CellTiter-Glo); assay type: cell-based, human; conditions: HT-1197 (Urinary bladder), 20 micromolar, 72 hrs
# Procedure, shortened: as §3
# J82 = experiment: Cell panel screen (CellTiter-Glo); assay type: cell-based, human; conditions: J82 (Urinary bladder), 20 micromolar, 72 hrs
# Procedure, shortened: as §3
# M059J = experiment: Cell panel screen (CellTiter-Glo); assay type: cell-based, human; conditions: M059J (Brain), 20 micromolar, 72 hrs
# Procedure, shortened: as §3
# MSTO-211-H = experiment: Cell panel screen (CellTiter-Glo); assay type: cell-based, human; conditions: MSTO-211-H (Lung), 20 micromolar, 72 hrs
# Procedure, shortened: as §3
# NCI-H1623 = experiment: Cell panel screen (CellTiter-Glo); assay type: cell-based, human; conditions: NCI-H1623 (Lung), 20 micromolar, 72 hrs
# Procedure, shortened: as §3
# NCI-H1694 = experiment: Cell panel screen (CellTiter-Glo); assay type: cell-based, human; conditions: NCI-H1694 (Lung), 20 micromolar, 72 hrs
# Procedure, shortened: as §3
# NCI-H1770 = experiment: Cell panel screen (CellTiter-Glo); assay type: cell-based, human; conditions: NCI-H1770 (Lung), 20 micromolar, 72 hrs
# Procedure, shortened: as §3
# NCI-H2347 = experiment: Cell panel screen (CellTiter-Glo); assay type: cell-based, human; conditions: NCI-H2347 (Lung), 20 micromolar, 72 hrs
# Procedure, shortened: as §3
# NCI-H2405 = experiment: Cell panel screen (CellTiter-Glo); assay type: cell-based, human; conditions: NCI-H2405 (Lung), 20 micromolar, 72 hrs
# Procedure, shortened: as §3
# NCI-H28 = experiment: Cell panel screen (CellTiter-Glo); assay type: cell-based, human; conditions: NCI-H28 (Lung), 20 micromolar, 72 hrs
# Procedure, shortened: as §3
# NCI-H524 = experiment: Cell panel screen (CellTiter-Glo); assay type: cell-based, human; conditions: NCI-H524 (Lung), 20 micromolar, 72 hrs
# Procedure, shortened: as §3
# Panc 03.27 = experiment: Cell panel screen (CellTiter-Glo); assay type: cell-based, human; conditions: Panc 03.27 (Pancreas), 20 micromolar, 72 hrs
# Procedure, shortened: as §3
# RL95 = experiment: Cell panel screen (CellTiter-Glo); assay type: cell-based, human; conditions: RL95 (Uterus), 20 micromolar, 72 hrs
# Procedure, shortened: as §3
# SW13 = experiment: Cell panel screen (CellTiter-Glo); assay type: cell-based, human; conditions: SW13 (Adrenal gland), 20 micromolar, 72 hrs
# Procedure, shortened: as §3
# T47D = experiment: Cell panel screen (CellTiter-Glo); assay type: cell-based, human; conditions: T47D (Breast), 20 micromolar, 72 hrs
# Procedure, shortened: as §3
# T98G = experiment: Cell panel screen (CellTiter-Glo); assay type: cell-based, human; conditions: T98G (Brain), 20 micromolar, 72 hrs
# Procedure, shortened: as §3
# TCCSUP = experiment: Cell panel screen (CellTiter-Glo); assay type: cell-based, human; conditions: TCCSUP (Urinary bladder), 20 micromolar, 72 hrs
# Procedure, shortened: as §3
# ZR-75-30 = experiment: Cell panel screen (CellTiter-Glo); assay type: cell-based, human; conditions: ZR-75-30 (Breast), 20 micromolar, 72 hrs
# Procedure, shortened: as §3
smiles,measurement,setting,value
CC(C)=CCC[C@]1(C)C=Cc2c(O)c3c(c(CC=C(C)C)c2O1)O[C@]12C(=C[C@@H]4C[C@H]1C(C)(C)O[C@@]2(C/C=C(/C)C(=O)O)C4=O)C3=O [gambogic acid],STAT3 activation upon IL-6 treatment,[1],able to inhibit STAT3 activation
"CN[C@@H]1C[C@H]2O[C@@](C)([C@@H]1OC)n1c3ccccc3c3c4c(c5c6ccccc6n2c5c31)C(=O)NC4 [Staurosporine, staurosporine, reference compound]",IC50,NCI-H1650,22 ± 4 nM
same,IC50,A549,8 ± 2 nM
same,IC50,CHP212,4 ± 1 nM
same,IC50,NCI-H1993,21 ± 7 nM
same,IC50,NCI-H838,11 ± 4 nM
same,IC50,SW1353,4 ± 1 nM
same,IC50,SW954,6 ± 1 nM
same,IC50,HuVec,4 ± 2 nM
COC(=O)C1OC(Oc2cc(O)c3c(=O)cc(-c4ccc(O)cc4)oc3c2)C(O)C(O)C1O (stereo not drawn) [WZ-6],Percent Inhibition,A498,13%
same,Percent Inhibition,A704,-9%
same,Percent Inhibition,BT-474,-12%
same,Percent Inhibition,BT-549,-16%
same,Percent Inhibition,Bel-7402,1%
same,Percent Inhibition,C3A,-1%
same,Percent Inhibition,C8166,-15%
same,Percent Inhibition,CCF-STTG1,-3%
same,Percent Inhibition,CW-2,12%
same,Percent Inhibition,ChaGo-K-1,-16%
same,Percent Inhibition,Colo 205,4%
same,Percent Inhibition,HCC1395,21%
same,Percent Inhibition,HCC1569,-18%
same,Percent Inhibition,HCC1599,12%
same,Percent Inhibition,HCC1937,3%
same,Percent Inhibition,HEC-1-A,1%
same,Percent Inhibition,HGC-27,-8%
same,Percent Inhibition,HPAF-II,-14%
same,Percent Inhibition,HT-1197,16%
same,Percent Inhibition,J82,-5%
same,Percent Inhibition,M059J,2%
same,Percent Inhibition,MSTO-211-H,6%
same,Percent Inhibition,NCI-H1623,-8%
same,Percent Inhibition,NCI-H1694,-9%
same,Percent Inhibition,NCI-H1770,-1%
same,Percent Inhibition,NCI-H2347,-3%
same,Percent Inhibition,NCI-H2405,-12%
same,Percent Inhibition,NCI-H28,6%
same,Percent Inhibition,NCI-H524,-11%
same,Percent Inhibition,Panc 03.27,-4%
same,Percent Inhibition,RL95,-5%
same,Percent Inhibition,SW13,1%
same,Percent Inhibition,T47D,4%
same,Percent Inhibition,T98G,4%
same,Percent Inhibition,TCCSUP,8%
same,Percent Inhibition,ZR-75-30,-2%

# From publication PMC4450297, “Screening Active Compounds from Garcinia Species Native to China Reveals Novel Compounds Targeting the STAT/JAK Signaling Pathway” (BioMed Research International, 2015)
